Experimental data published in patent publication EP2604265A1, “P2x7 antagonists as frontline or adjunctive treatment against status epilepticus” (Royal College of Surgeons in Ireland (RCSI), priority 2011, dated 2013).

What was measured:
Adult male C57BL/6 mice [1] = test: Histopathology of ipsilateral hippocampal CA3 after SE (FJB and NeuN counts); format: in vivo; settings: 24 h after SE, vs vehicle; for Counts of surviving CA3 neurons (NeuN) / FJB-positive cells within the CA3 subfield (neuronal death): drug given prior to SE
Protocol: (§1) Adult male C57BL/6 mice (20-25 g) were obtained from Harlan UK (Blackthorn, UK). Mice were first anesthetized using isoflurane (3-5%) and maintained normothermic by means of a feedback-controlled heat blanket (Harvard Apparatus Ltd, Kent, UK). Mice were next placed in a stereotaxic frame and three partial craniectomies performed to affix cortical skull-mounted EEG electrodes (Bilaney Consultants Ltd, Sevenoaks, UK). EEG was recorded using a Grass Comet XL digital EEG (Medivent Ltd, Lucan, Ireland). A guide cannula was affixed (coordinates from Bregma: AP = 0.94; L = 2.85 mm) and the assembly fixed in place with dental cement. Anesthesia was then discontinued and freely moving mice were placed inside a clear perspex recording chamber. EEG recordings were commenced and after establishing baseline EEG for a few minutes, an injection cannula was lowered through the guide cannula for injection of kainic acid (KA) (Ocean Produce International, Nova Scotia, Canada) into the basolateral amygdala nucleus (0.3 µg in 0.2 µl phosphate-buffered saline). Non-seizure control mice underwent the same surgical procedure but received 0.2 µl intra-amygdala vehicle. Mice were killed at different time-points (1, 4, 8 or 24 h) later and perfused with saline to remove intravascular blood components. Brains were either flash-frozen whole in 2-methylbutane at 30°C or perfused with 4% PFA for histopathology, or dissected on ice to obtain whole hippocampus or microdissected to obtain the different hippocampal subfields (CA1, DG and CA3).
Flash-frozen brains in 2-methylbutane were sectioned at -20°C on a Leica cryostat and 12 µm sections collected at the level of dorsal hippocampus (-1.8 mm and - 2.9 mm from Bregma according to a mouse stereotaxic atlas (Paxinos and Franklin, 2001). Neuronal death was assessed using Fluoro-Jade B (FJB) staining, as previously described (Engel et al., 2010; Murphy et al., 2010). Briefly, sections were air-dried and post-fixed in formalin followed by hydrating through graded alcohols. Sections were then rinsed in distilled water and transferred to 0.006% potassium permanganate solution for 15 min. Sections were rinsed again and transferred to a 0.001% FJB solution according to manufacturer's recommendations (Chemicon Europe Ltd, Chandlers Ford, UK). After staining, sections were mounted in DPX (Sigma-Aldrich). For NeuN immunohistochemistry, sections were fixed and permeabilized, blocked in goat serum and incubated overnight with anti-NeuN antibodies (Millipore Ireland B.V., Tullagreen, Ireland) followed by incubation with goat anti-rabbit IgG antibodies coupled to AlexaFluor 568 (BioSciences Limited, Dun Laoghaire, Ireland). Sections were examined using a Nikon 2000s epifluorescence microscope under Ex/Em wavelengths of 472/520 nm (green) and 540 to 580/600 to 660 nm (red) and images captured using a Hamamatsu Orca 285 camera. Cell counts were the average of two adjacent sections for the CA3 subfield under 40x lens magnification by an observer blinded to treatment.

microglia = test: Iba-1 immunostaining, activated microglia counts in CA3 after SE; format: in vivo, mice; settings: CA3, 24 h after SE; vs vehicle
Protocol: as §1, with “Brains were either flash-frozen whole in 2-methylbutane at 30°C or perfused with 4% PFA for histopathology, or dissected on ice to obtain whole hippocampus or microdissected to obtain the different hippocampal subfields (CA1, DG and CA3).” left out

Adult male C57BL/6 mice [2] = test: Intra-amygdala KA-induced SE in mice, EEG, drug i.c.v. immediately prior to KA; format: in vivo; settings: i.c.v. co-injection immediately prior to intra-amygdala KA; vs vehicle (antibody vs control IgG); lorazepam at 40 min
Protocol: as §1
Digitized EEG recordings were analyzed off-line using manual assessment and automated software. […] The duration of high-frequency (>5 Hz) high-amplitude (>2× baseline) polyspike discharges of ≥5 s duration (HAHFDs) was counted by a reviewer blind to treatment. Further EEG analysis was performed by uploading EEG into Labchart7 software (ADInstruments) to calculate the power spectral density (total power, a measure of the input signal's power (amplitude) over frequency) EEG spectrogram (spectral power against frequency and time).
All the following drugs were purchased from Sigma-Aldrich Ireland (Arklow, Ireland) and delivered by intracerebroventricular (i.c.v.) microinjection in 2 µl volume unless otherwise specified: Adenosine 5'-triphosphate (ATP) at 100 µM, Uridine-5'-triphosphate (UTP) at 100 µM, Uridine-5'-diphosphate (UDP) at 100 µM, 2-chloro-N6-cyclopentyladenosine (CCPA) 300 nM, Pyridoxal-phosphate-6-azophenyl-2,4-disulfonate (PPADS) at 50 µM, α,β- methylene- adenosine-5-triphosphate (α,β-meATP) at 0.1 nmol, 3-O-(4-benzoyl)benzyl-ATP (Bz-ATP) at 300 µM, Brillant Blue G (BBG) at 30 nM.
Lorazepam (Ativan®, Wyeth, Taplow, U.K.) (6 mg/kg) was administered intraperitoneally (i.p.) at 40 or 60 min after KA.
Next, a model of focal-onset SE was used to evaluate the contributions of ATP-gated receptors in vivo. Mice received intra-amygdala microinjection of KA to induce SE (Fig. 2C). […] The electroencephalogram (EEG) was recorded by using cranial electrodes (lower part of Fig. 2C). Seizures were curtailed after 40 min by the injection of lorazepam to minimize morbidity and mortality.

| Compound | Counts of surviving CA3 neurons (NeuN) (Adult male C57BL/6 mice [1]) | FJB-positive cells within the CA3 subfield (neuronal death) (Adult male C57BL/6 mice [1]) | FJB-positive cells in CA3 (Adult male C57BL/6 mice [1]; injected 15 min after KA) | NeuN-positive cells in CA3 (Adult male C57BL/6 mice [1]; injected 15 min after KA) | Reactive microglia (Iba-1) (microglia) | seizure time during SE (duration of HAHFDs) (Adult male C57BL/6 mice [2]) |
| --- | --- | --- | --- | --- | --- | --- |
| Cl.Clc1cccc(-c2nnnn2Cc2cccnc2)c1Cl [A-438079, 3-[[5-(2,3-Dichlorophenyl)-1H-tetrazol-1-yl]methyl]pyridine hydrochloride] | significantly higher | protect the hippocampus against SE-induced neuronal death | significantly fewer | significantly more | significantly reduced | significantly reduced seizure time |
| CCOc1ccc(Nc2ccc(C(=C3C=CC(=[N+](CC)Cc4cccc(S(=O)(=O)[O-])c4)C=C3C)c3ccc(N(CC)Cc4cccc(S(=O)(=O)O)c4)cc3C)cc2)cc1 [BBG, Brilliant Blue G] | significantly higher | significantly less damage |  |  | significantly reduced | significantly reduced seizure time |
